“Also recorded” adds a separate entry of the source.
Assays:
[1] = tested on: NHEK; test: MTT assay (SDH activity), NHEK; type: cell-based, human
Excerpt: (§1) Succinate dehydrogenase activity assay (MTT assay).

[2] = tested on: OSC-2 and OSC-4 cells; test: MTT assay, OSC-2 and OSC-4 cells pretreated with catalase, 3-AT or NAC; type: cell-based, human
Excerpt: as §1

[3] = tested on: p57 (KIP2); type: cell-based, human; conditions: for p57 expression, carcinogen alone: 0.12 μM BaP or 10 μM NNK alone
Protocol: Cell treatments. For 24 hours treatments, exponentially growing cells with 40% confluency (to minimize differentiation and spontaneous apoptosis) were either maintained in 50 μM EGCG (2.29 mg/100 ml) or 0.2 mg/ml of GTPPs in tissue culture flasks (25 cm^2). Control flasks contained cells without any treatment. To test whether BaP or NNK interfere with the induction of p57, the human keratinocytes were treated with 0.12 μM BaP, or 10 μM NNK, either alone or in combination with 50 μM EGCG. To examine the time course of p57 induction, cells were treated with 50 μM EGCG and harvested for Western analysis at 30 minutes, 2 hours, 6 hours, and 24 hours. The human keratinocytes were treated when the cell density reached 85-90% confluency (to mimic the epithelium).
In a parallel series of experiments, treatment with EGCG was performed with 30 micrograms per milliliter (μg/ml) cycloheximide added to the keratinocyte media 30 minutes prior to the addition of EGCG. The dose-response experiments were performed using EGCG concentrations at 30, 50 100, and 200 μM in the culture media for 24 hours.
Western blot analysis. Cells from different treatment groups were lysed in RIPA buffer (1% NP-40, 1% sodium deoxycholate, 0.1% SDS, 0.15 M NaCl, 0.01 M sodium phosphate, pH 7.2, and 1% Trasylol) containing proteinase inhibitors (1 mM PMSF, 1 μg/ml each of aprotinin, leupeptin, and pepstatin). The concentration of protein in each sample was determined using the BioRad DC Protein Assay and spectrophotometry. Fifty micrograms (μg) of protein from each sample and a BioRad molecular weight standard marker were run on a 10% SDS-PAGE, followed by transfer to nitrocellulose membranes. Nonspecific binding to membranes was blocked with 10% nonfat milk. Specific primary polyclonal (rabbit) antibody against p57 and a horse radish peroxidase-conjugated goat anti-rabbit secondary antibody were used in conjunction with the ECL Chemiluminescence Kit and membranes were exposed to radiographic films for detection.

[4] = tested on: OSC-4 cells; test: MTT assay (SDH activity), OSC-4 cells; type: cell-based, human
Protocol: MTT [3-(4,5-dimethylthiazol-2-yl)-2,5-diphenyl tetrazolium bromide] assay. This method directly detects the activity of mitochondrial succinate dehydrogenase (SDH). Changes in SDH activity is a measurement of cell viability when stress is introduced in cell culture through chemical or physical means. Cells (1.5×10^4 cells/well) were seeded in a 96-well microplate and treated with the indicated doses of EGCG for 24 hours. After the treatment, the cells in each well were washed with 200 μl of phosphate-buffered saline (PBS), incubated with 100 μl of 2% MTT in a solution of 0.05 M Tris, 0.5 mM MgCl2, 2.5 mM CoCl2, and 0.25 M disodiumn succinate as substrate (Sigma) at 37° C. for 30 minutes. Cells were fixed in situ by the addition of 100 μl of 4% formalin in 0.2 M Tris (pH 7.7), and after a 5 minute incubation at room temperature liquid was removed and the wells were allowed to dry. Each well was rinsed with 200 μl water and cells were solubilized by the addition of 100 μl of 6.35% 0.1 N NaOH in DMSO. The colored formazan product was measured by a Thermo MAX micro plate reader (Molecular Devices Corp., Sunnyvale, Calif.) at a wavelength of 562 nm. Experiments were repeated three times with triplicate samples for each experiment.

[5] = tested on: OSC-2 cells; test: MTT assay (mitochondrial SDH activity), OSC2 (OSC-2) cells
Protocol: This method detects the activity of mitochondrial succinate dehydrogenase (SDH). In a 96-well plate, 1.5×10^4 cells were seeded in each well. After variety of treatments, 100 μl of 2% MTT was added to each well and the plate was incubated at 37° C. for 30 minutes. 100 μl of 0.2 M Tris (pH 7.7) with 4% formalin was added to each well. After incubation at room temperature for 5 minutes, liquid was removed and the wells were allowed to dry. Each well was rinsed with 200 μl water followed by addition of 100 μl DMSO (6.35% 0.1 N NaOH in DMSO) to each well. The coloration was measured by a Thermo MAX microplate reader (Molecular Devices Corp. Sunnyvale, Calif. using wavelengths of 562 nm. Experiments were repeated three times with triplicate samples for each experiment.
This method directly detects the activity of mitochondrial succinate dehydrogenase (SDH). Changes in SDH activity is a measurement of cell viability when stress is introduced in cell culture through chemical or physical means. Cells (1.5×10^4 cells/well) were seeded in a 96-well microplate and treated with the indicated doses of EGCG for 24 hours. After the treatment, the cells in each well were washed with 200 μl of phosphate-buffered saline (PBS), incubated with 100 μl of 2% MTT in a solution of 0.05 M Tris, 0.5 mM MgCl2, 2.5 mM CoCl2, and 0.25 M disodiumn succinate as substrate (Sigma) at 37° C. for 30 minutes. Cells were fixed in situ by the addition of 100 μl of 4% formalin in 0.2 M Tris (pH 7.7), and after a 5 minute incubation at room temperature liquid was removed and the wells were allowed to dry. Each well was rinsed with 200 μl water and cells were solubilized by the addition of 100 μl of 6.35% 0.1 N NaOH in DMSO. The colored formazan product was measured by a Thermo MAX micro plate reader (Molecular Devices Corp., Sunnyvale, Calif.) at a wavelength of 562 nm. […]
This method directly detects the activity of mitochondrial succinate dehydrogenase (SDH). […] Solubilized colored formazan product was measured using a Thermo MAX microplate reader (Molecular Devices Corp., Sunnyvale, Calif.) at a wavelength of 562 nm.

[6] = tested on: OSC-2 cells; test: Intracellular ROS levels (DFDA assay), OSC-2 cells; type: cell-based, human; conditions: 5 mM diamide or relatively high H2O2, 60 minutes
Protocol: (§2) Measurement of intracellular ROS levels. The ROS assay measures the accumulation of intracellular ROS levels. The non-fluorescent dye DFDA passively diffuses into cells, where the acetates are cleaved by intracellular esterases. […] Thus, values of the fluorescence in the cell cultures are constantly rising in this assay. Cells (1.5×10^4 cells/well) were incubated with Hallam's physiological saline (HPS) containing DFDA (10 μM) in a 96-well microplate for 30 minutes at 37° C. After the incubation, cells were washed three times with HPS and then incubated with HPS containing EGCG (15-200 μM) or diamide (5 mM) for the indicated time periods. The intracellular ROS levels were measured by using a fluorescence plate reader (BIO-TEK FL600, Bio-Tek Instruments, Inc., Winooski, Vt.), at an excitation wavelength of 485 nm and an emission wavelength of 530 nm.
as §2, with “assay (DFDA assay)” for “assay”, “dye dichlorofluorescein diacetate (DFDA)” for “dye DFDA”, “this assay due to the accumulation of ROS.” for “this assay.”, “EGCG (50-200” for “EGCG (15-200”, “indicated times.” for “indicated time periods.”

[7] = tested on: NHEK; test: Intracellular ROS levels (DFDA assay), NHEK; type: cell-based, human; conditions: 5 mM diamide, 1-minute incubation
Protocol: Measurement of intracellular ROS levels. The ROS assay measures the accumulation of intracellular ROS levels. The non-fluorescent dye DFDA passively diffuses into cells, where the acetates are cleaved by intracellular esterases. […] Thus, values of the fluorescence in the cell cultures are constantly rising in this assay. […] The intracellular ROS levels were measured by using a fluorescence plate reader (BIO-TEK FL600, Bio-Tek Instruments, Inc., Winooski, Vt.), at an excitation wavelength of 485 nm and an emission wavelength of 530 nm.

[8] = tested on: caspase-3; test: Caspase-3 activity, OSC-2 and OSC-4 cells pretreated with catalase; type: cell-based, human; conditions: 200 U/ml catalase, 24 hour
Protocol: Caspase-3 activity assay. The caspase-3 apoptosis detection kit (Santa Cruz Biotechnology, Inc., Santa Cruz, Calif.) was used to measure caspase-3 activity. Cells (10^5 cells/well) were plated in triplicate in a 24-well tissue culture plate. […] To each well, 100 μl of 2×reaction buffer was added with 10 mM dithiothreitol. Finally, 5 μl of DEVD-AFC substrate was added to each well containing cell lysates. The reaction mixtures were incubated for 1 hour at 37° C., and caspase-3 activity in each well was measured using a fluorescence microplate reader ([…]luor Plus, Tecan US, Research Triangle Park, N.C.) at a wavelength of 405 nm for excitation and 505 nm for emission.

[9] = tested on: OSC-2 and OSC-4 cells; test: BrdU incorporation, OSC-2 and OSC-4 cells with exogenous catalase; type: cell-based, human; conditions: 200 U/ml catalase, 200 μM EGCG, 24 h
Protocol: DNA synthesis assay. DNA synthesis was analyzed by a BrdU cell proliferation assay kit (Oncogene Research Products, Boston, Mass.). […] After the treatment, cells were labeled with BrdU for 2 hours at 37° C. and reacted with anti-BrdU antibody. Unbound antibody in each well was removed by rinsing, and horseradish peroxidase-conjugated goat anti-mouse IgG antibody was added to each well. The color reaction to visualize the secondary antibody was carried out according to the protocol provided by the manufacturer.

With `Nc1nc[nH]n1` [3-AT, 3-amino-1,2,4-triazole] the “susceptibility of NHEK to EGCG cytotoxicity after 3-AT” value ([1]; pretreatment with 3-AT) was “did not become susceptible to EGCG cytotoxicity” and the “effect of 3-AT on EGCG-induced decline of SDH activity” value ([2]; 30 μM 3-AT 2 hours, 200 μM EGCG) was “had no significant effect on the decline of mitochondrial SDH activity”.
In the case of `c1ccc2c(c1)cc1ccc3cccc4ccc2c1c34` [BaP, reference compound], the “p57 expression, carcinogen alone” value [3] is reported as “did not alter p57 expression”.
With `OO` [H2O2, hydrogen peroxide] the SDH activity ([4]; 100 μM H2O2) was “had no significant effect on SDH activity”, the “H2O2 concentration needed to cause […]% reduction of SDH activity” value ([4]; 24 hours) was 250 µM and the SDH activity ([5]; 50 μM H2O2, 24 hour) was “had no effect on the SDH activity”. The “H2O2 concentration needed to cause […]% reduction of SDH activity” value ([5]; 24 hours) was 250 µM, the SDH activity remained ([1]; 1 mM H2O2, 24 hours) was 75% and the “reduction of SDH activity” value ([1]; 1 mM H2O2, 24 hours) was 25%. The “ROS accumulated in OSC-2 cells relative to OSC-4 cells” value [6] was “approximately two”.
With `CC(=O)N[C@@H](CS)C(=O)O` [NAC, N-acetyl-L-cysteine] the “effect of NAC on EGCG-induced cytotoxicity” value ([2]; 10 mM NAC 2 hour pretreatment) was “failed to rescue both cell lines from EGCG-induced cytotoxicity” and the “effect of NAC on H2O2 cytotoxicity” value ([2]; 10 mM NAC 2 hour pretreatment, H2O2 250 and 500 μM) was “significantly inhibited the cytotoxic effect of H2O2”.
With `CN(CCCC(=O)c1cccnc1)N=O` [NNK, reference compound] the “p57 expression, carcinogen alone” value [3] was “did not alter p57 expression”.
For `C[C@@H]1C[C@@H]([C@H](O)CC2CC(=O)NC(=O)C2)C(=O)[C@@H](C)C1` [cycloheximide, reference compound], the “p57 protein levels with cycloheximide” value ([3]; 30 μg/ml cycloheximide plus 50 μM EGCG) was “gradual decline in p57 protein levels”.
With `CN(C)C(=O)/N=N/C(=O)N(C)C` [diamide, reference compound] the “intracellular ROS levels vs endogenous” value [7] was “induced ROS” and the “ROS accumulated in OSC-2 cells relative to OSC-4 cells” value [6] was “doubled that in OSC-4 cells; also recorded: approximately two”.
In the case of catalase, the “effect of exogenous catalase on EGCG-induced caspase 3 activation” value [8] is reported as “partially inhibited EGCG-induced caspase 3 activation”, the “effect of exogenous catalase on BrdU incorporation with EGCG” value [9] is reported as “had no effect on the rates of BrdU incorporation” and the “effect of exogenous catalase on EGCG-induced SDH reduction in OSC-4 cells” value ([2]; 200 U/ml catalase, 200 μM EGCG) is reported as “partially reversed the effects of 200 μM EGCG”. For the same compound, the “effect of exogenous catalase on EGCG-induced SDH reduction” value ([2]; 200 U/ml catalase, 200 μM EGCG, 24 h) was “had no effect on this reduction”.
